Experiment: Single oral dose (5 mg/kg) pharmacokinetics of firocoxib in koalas, plasma HPLC, non-compartmental analysis;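 further: healthy adult koalas, three per sex, anaesthetised the day before dosing for cephalic vein catheterisation, with serial blood draws and firocoxib in plasma quantified by HPLC using fluorescence detection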
Conditions: for Cmax / MRT inf / Tmax / Vd/F / k el / half-life / concentration at 2 h / concentration at 4 h / concentration at 8 h / concentration at 1 h / concentration at 0.25 h / concentration at 0.5 h / concentration at 12 h / concentration at 24 h / AUC(0-inf) / AUC(0-t): plasma, po, 5 mg/kg; for MRT inf: MRT0-inf; for Vd/F: Vz/F; for concentration at 2 h / concentration at 4 h / concentration at 8 h / concentration at 1 h / concentration at 0.25 h / concentration at 0.5 h / concentration at 12 h / concentration at 24 h: Firocoxib plasma concentration; for AUC(0-t): AUC0-t
[1] = female, K4 female, single oral 5 mg/kg
[2] = female, K5 female, single oral 5 mg/kg
[3] = female, arithmetic mean, female koalas (n = 3), single oral 5 mg/kg
[4] = female, harmonic mean, female koalas (n = 3), single oral 5 mg/kg
[5] = female, K6 female, single oral 5 mg/kg
[6] = harmonic mean, female koalas (n = 3), single oral 5 mg/kg
[7] = harmonic mean, male koalas (n = 3), single oral 5 mg/kg
[8] = harmonic mean, n = 6 koalas, single oral 5 mg/kg
[9] = male, koala (Phascolarctos cinereus), K1 male, single oral 5 mg/kg
[10] = male, koala (Phascolarctos cinereus), K2 male, single oral 5 mg/kg
[11] = male, koala (Phascolarctos cinereus), K3 male, single oral 5 mg/kg
[12] = male, koala, K1 male, single oral 5 mg/kg
[13] = male, koala, K2 male, single oral 5 mg/kg
[14] = male, koala, K3 male, single oral 5 mg/kg
[15] = male, K1 male, single oral 5 mg/kg
[16] = male, K2 male, single oral 5 mg/kg
[17] = male, K3 male, single oral 5 mg/kg
[18] = male, arithmetic mean, male koalas (n = 3), single oral 5 mg/kg
[19] = male, harmonic mean, male koalas (n = 3), single oral 5 mg/kg
[20] = median (range), n = 6 koalas, single oral 5 mg/kg

Excerpt: Six mature koalas (3 males, 3 females) with median (range) body weights and ages of 9.2 kg, (7.5 to 9.7 kg) and 4.8 years (4.3 to 9.1 years), respectively, were recruited from the Taronga Zoo colony (Mosman, NSW, Australia). These koalas were clinically normal based on regular physical examinations, haematological and biochemical analyte values. During the study, koalas were housed singly and supplied with various Eucalyptus spp. foliage and water ad-libitum. […] No animals were sacrificed; the animals were returned to the colony immediately after firocoxib administration and blood sampling. In order to minimise stress, intravenous catheterisation for sequential blood sampling was performed under general anaesthesia.
The day prior to drug administration and blood collection, the koalas were anaesthetised with alfaxalone (Alfaxan, Jurox, Pty Ltd, Rutherford, NSW, Australia) at 3 mg/kg administered intramuscularly (i.m.) and maintained under anaesthesia on isoflurane in 100% oxygen via a face mask for placement of a 20 gauge, 1 ¼ inch intravenous catheter into the cephalic vein. A short T-connector extension set (Codan, Santa Ana, CA, USA) and cap was attached to the catheter and flushed with saline. The extension tube, cap and catheter were secured with tape and bandage, for serial blood collection. Blood (5 mL) was collected at the time of anaesthesia in a lithium heparin tube to establish a baseline (t = 0 h).
Firocoxib was administered as a single oral dose of 5 mg/kg as crushed tablets made into a paste with Vetafarm Koala Crittacare (Wagga Wagga, NSW) and water.
Samples were centrifuged at 1500 x g for 10 minutes, within 1 h of collection; the plasma was immediately stored at –80 °C and protected from light until drug quantification. […] Clinical observations for the presence of adverse effects in the animals treated included measurement of vital signs, appetite, body weight, faecal consistency and overall behaviour and mobility.
Quantification of firocoxib and visualisation of metabolites in plasma was achieved by HPLC with fluorescence detection modified from a published method [12]. The HPLC system consisted of a Shimadzu LC-20AT solvent delivery unit, DGU-20A degasser, a SIL-20A HT auto injector, an SPD-20A UV detector and RF-10A XL fluorescence detector (Shimadzu, Rydalmere, NSW, Australia) and column oven (CTO-20A). […] Chromatographic separation was performed with a Supelco, Discovery C18, (25 cm x 4.6 mm, 5 µm) column (Merck KGaA, Darmstadt, Germany) with a 1-mm Opti-guard C18 pre-column (Choice Analytical, Thornleigh, NSW, Australia) at ambient temperature. […] Fluorescence detection excitation and emission wavelengths were 280 nm and 375 nm, respectively.
For sample preparation 200 μL of each of the following: plasma samples collected from koalas administered firocoxib, standards prepared for the standard curves and the QC samples; were extracted twice by mixing with 800 μL of ethyl acetate. The extracted organic portion (1.6 mL) was dried under vacuum in a Speed Vac Concentrator (Thermo Scientific, MA, USA) at 35 °C for 1 h, reconstituted with 100 μL of acetonitrile, and finally 10 μL of the reconstituted sample was injected into the HPLC system.
The concentration of each QC sample was repeated three times with the accuracy and precision calculated on each of the triplicates. The mean accuracy ± standard deviation (SD) were calculated using the formula [13]:
Firocoxib plasma concentrations from the initial oral administration underwent non-compartmental analysis. The peak concentration (Cmax) and the time reached (Tmax) were obtained directly from the measured concentrations. The elimination half-life (t1/2) was determined by ln2/ke where ke is the elimination rate constant which is the inverse slope of the elimination or terminal part of the semi-log curve.

With `CC1(C)OC(=O)C(OCC2CC2)=C1c1ccc(S(C)(=O)=O)cc1` [firocoxib] the Cmax (female, median value, female koalas, PO 5 mg/kg) was 61.9 ng/mL, the MRT inf [1] was 8.74 h and the MRT inf [2] was 13.1 h. It also gave an MRT inf [3] of 16.1 h, an MRT inf [4] of 13.1 h and a Tmax [1] of 4 h. It also gave a Tmax [2] of 2 h, a Tmax [5] of 4 h and a Tmax [3] of 3.33 h. It also gave a Tmax [4] of 3 h, a Vd/F [1] of 202 L and a Vd/F [2] of 616 L. It also gave a Vd/F [5] of 2130 L, a Vd/F [3] of 982 L and a Vd/F [4] of 437 L. For the same molecule, the k el (female, ke (elimination constant), K4 female, single oral 5 mg/kg, slope from 8, 12, 24 h) was 5.28e-05 s⁻¹, the k el (female, ke (elimination constant), K5 female, single oral 5 mg/kg, slope from 8, 12, 24 h) was 1.94e-05 s⁻¹ and the k el (female, ke (elimination constant), K6 female, single oral 5 mg/kg, slope from 8,12,24 h) was 2.78e-05 s⁻¹. It also gave a k el (female, ke, arithmetic mean, female koalas (n = 3), single oral 5 mg/kg) of 3.33e-05 s⁻¹, a k el (female, ke, harmonic mean, female koalas (n = 3), single oral 5 mg/kg) of 2.78e-05 s⁻¹ and a half-life (female, t1/2 (elimination half-life), K4 female, single oral 5 mg/kg) of 3.67 h. It also gave a half-life (female, t1/2 (elimination half-life), K5 female, single oral 5 mg/kg) of 9.91 h, a half-life (female, t1/2 (elimination half-life), K6 female, single oral 5 mg/kg) of 7.24 h and a half-life (female, t1/2, arithmetic mean, female koalas (n = 3), single oral 5 mg/kg) of 6.94 h. For the same molecule, the half-life (female, t1/2, harmonic mean, female koalas (n = 3), single oral 5 mg/kg) was 5.87 h, the half-life (female, t1/2, median value, female koalas, PO 5 mg/kg) was 7.24 h and the “AUC 0-t/AUC0-inf” value [6] was 0.91. For the same molecule, the “AUMC 0-inf” value [6] was 10875.3 ng/mL*h^2, the Cl/F [6] was 52.0 L/h and the ka [6] was 0.25 h⁻¹. For the same molecule, the “AUC 0-t/AUC0-inf” value [7] was 0.88, the “AUMC 0-inf” value [7] was 16711.5 ng/mL*h^2 and the Cl/F [7] was 23.8 L/h. For the same molecule, the ka [7] was 0.16 h⁻¹, the AUMC [8] was 13176.1 ng/mL*h ^ 2 and the Cl/F [8] was 32.6 L/h. It also gave a ka [8] of 0.20 h⁻¹, a concentration at 2 h [9] of 22.7 ng/mL and a concentration at 4 h [9] of 68.3 ng/mL. The concentration at 8 h [9] was 191 ng/mL, the concentration at 2 h [10] was 39.2 ng/mL and the concentration at 4 h [10] was 210 ng/mL. It also gave a concentration at 8 h [10] of 118 ng/mL, a concentration at 1 h [11] of 41.9 ng/mL and a concentration at 2 h [11] of 105 ng/mL. It also gave a concentration at 4 h [11] of 263 ng/mL, a concentration at 8 h [11] of 128 ng/mL and a concentration at 0.25 h [12] of 7.94 ng/mL. For the same molecule, the concentration at 0.5 h [12] was 4.51 ng/mL, the concentration at 1 h [12] was 8.34 ng/mL and the concentration at 12 h [12] was 101 ng/mL. The concentration at 24 h [12] was 57.2 ng/mL, the concentration at 0.25 h [13] was 4.37 ng/mL and the concentration at 0.5 h [13] was 10 ng/mL. The concentration at 1 h [13] was 21.7 ng/mL, the concentration at 12 h [13] was 39.7 ng/mL and the concentration at 24 h [13] was 4.13 ng/mL. It also gave a concentration at 0.25 h [14] of 16.6 ng/mL, a concentration at 0.5 h [14] of 52.5 ng/mL and a concentration at 12 h [14] of 49.6 ng/mL. The concentration at 24 h [14] was 3.86 ng/mL, the AUC(0-inf) (male, AUC0-inf, K1 male, single oral 5 mg/kg) was 3000 ng·h/mL and the AUC(0-inf) (male, AUC0-inf, K2 male, single oral 5 mg/kg) was 1540 ng·h/mL. The AUC(0-inf) (male, AUC0-inf, K3 male, single oral 5 mg/kg) was 1950 ng·h/mL, the AUC(0-inf) (male, AUC 0-inf, arithmetic mean, male koalas (n = 3), single oral 5 mg/kg) was 2160 ng·h/mL and the AUC(0-inf) (male, AUC 0-inf, harmonic mean, male koalas (n = 3), single oral 5 mg/kg) was 2010 ng·h/mL. It also gave an AUC(0-t) [15] of 2160 ng·h/mL, an AUC(0-t) [16] of 1520 ng·h/mL and an AUC(0-t) [17] of 1930 ng·h/mL. For the same molecule, the AUC(0-t) [18] was 1870 ng·h/mL, the AUC(0-t) [19] was 1830 ng·h/mL and the Cmax [15] was 191 ng/mL. For the same molecule, the Cmax [16] was 210 ng/mL, the Cmax [17] was 263 ng/mL and the Cmax [18] was 221 ng/mL. For the same molecule, the Cmax [19] was 217 ng/mL, the Cmax (male, median value, male koalas, PO 5 mg/kg) was 210 ng/mL and the MRT inf [15] was 19 h. It also gave an MRT inf [16] of 7.13 h, an MRT inf [17] of 6.88 h and an MRT inf [18] of 11.1 h. It also gave an MRT inf [19] of 9.01 h, a Tmax [15] of 8 h and a Tmax [16] of 4 h. The Tmax [17] was 4 h, the Tmax [18] was 5.33 h and the Tmax [19] was 4.8 h. For the same molecule, the Vd/F [15] was 277 L, the Vd/F [16] was 152 L and the Vd/F [17] was 113 L. It also gave a Vd/F [18] of 181 L, a Vd/F [19] of 158 L and a k el (male, ke (elimination constant), K1 male, single oral 5 mg/kg, slope from 12, 24 h) of 1.39e-05 s⁻¹. For the same molecule, the k el (male, ke (elimination constant), K2 male, single oral 5 mg/kg, slope from 4, 8, 12 h) was 5.83e-05 s⁻¹, the k el (male, ke (elimination constant), K3 male, single oral 5 mg/kg, slope from 4, 8, 12 h) was 6.11e-05 s⁻¹ and the k el (male, ke, arithmetic mean, male koalas (n = 3), single oral 5 mg/kg) was 4.44e-05 s⁻¹. For the same molecule, the k el (male, ke, harmonic mean, male koalas (n = 3), single oral 5 mg/kg) was 2.78e-05 s⁻¹, the half-life (male, t1/2 (elimination half-life), K1 male, single oral 5 mg/kg) was 14.7 h and the half-life (male, t1/2 (elimination half-life), K2 male, single oral 5 mg/kg) was 3.31 h. For the same molecule, the half-life (male, t1/2 (elimination half-life), K3 male, single oral 5 mg/kg) was 3.19 h, the half-life (male, t1/2, arithmetic mean, male koalas (n = 3), single oral 5 mg/kg) was 7.06 h and the half-life (male, t1/2, harmonic mean, male koalas (n = 3), single oral 5 mg/kg) was 4.38 h. The half-life (male, t1/2, median value, male koalas, PO 5 mg/kg) was 3.31 h, the AUMC [20] was 12429.4 (8500.1–56998.2) ng/mL*h ^ 2 and the Cl/F [20] was 34.5 (19.0-87.5) L/h. For the same molecule, the ka [20] was 0.23 (0.11-0.43) 1/h and the “time after which firocoxib could be detected in the plasma of all koalas” value (single oral 5 mg/kg) was 15 min.
